From patent publication US11578074B2, “Nitrogenous heterocyclic compound, preparation method, intermediate, composition, and application” (SHANGHAI PHARMACEUTICALS HOLDING CO., LTD., priority 2017, dated 2023)
Where two headings read alike, the source gives them in different places.

What was measured:
[1] = molecular target: T1, ErbB2 kinase (Homo sapiens, UniProt P04626); assay: EGFR/ErbB2 enzymatic experiment (HTRF kinEASE-TK), ErbB2; type: biochemical; conditions: ErbB2 kinase 0.06 ng/μL, ATP 4 μM; read-out: Kinase IC50 (nM) in vitro ErbB2
T1 construct: The final concentration of ErbB2 kinase was 0.06 ng/μL

[2] = molecular target: EGFR kinase (Homo sapiens, UniProt P00533); assay: EGFR/ErbB2 enzymatic experiment (HTRF kinEASE-TK), EGFR; type: biochemical; conditions: EGFR kinase 0.06 units/μL, ATP 1.65 μM; read-out: Kinase IC50 (nM) in vitro EGFR
[3] = test system: N87 (human gastric cancer cell NCI-N87); assay: In vitro proliferation inhibition assay of cell lines (CellTiter-Glo), N87; type: cell-based; conditions: N87 cells, 72 hours
Outline: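 Cells seeded overnight (BT-474 8.8×10^4 cells/mL, N87 6.6×10^4 cells/mL), then exposed to 9 compound concentrations in duplicate for 72 hours at 37° C, 5% CO2. Viability read by CellTiter-Glo luminescence.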

[4] = test system: BT-474 (human breast cancer cell); assay: In vitro proliferation inhibition assay of cell lines (CellTiter-Glo), BT-474; type: cell-based; conditions: BT-474 cells, 72 hours
Outline: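 Cells were exposed to nine compound concentrations in duplicate for 72 h at 37 °C and 5% CO2. Viability was read with CellTiter-Glo reagent after equilibration at room temperature.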

[5] = molecular target: T2, CYP3A4 (Homo sapiens, UniProt P08684); assay: Direct inhibition (DI) of CYP3A4 in human liver microsomes; type: in vitro ADME; conditions: human liver microsomes 0.2 mg/mL, 10 μM compound
T2 construct: A system of 100 μL human liver microsomes; from tissue; host or cells: human liver microsomes
Outline: (§1)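 Pooled human liver microsomes (0.2 mg/mL) with 1 mM NADPH and 10 μM test compound were incubated for 20 min with a mixed probe-substrate cocktail (midazolam 10 μM, testosterone 100 μM, dextromethorphan 10 μM, diclofenac 20 μM, phenacetin 100 μM, mephenytoin 100 μM). Relative enzyme activity came from metabolite formation versus DMSO control.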

[6] = molecular target: T3, CYP2D6 (Homo sapiens, UniProt P10635); assay: Direct inhibition (DI) of CYP2D6 in human liver microsomes; type: in vitro ADME; conditions: probe Dextromethorphan, human liver microsomes 0.2 mg/mL, 10 μM compound, read-out: Direct inhibition (DI) 2D6 (Dextromethorphan)
T3 construct: A system of 100 μL human liver microsomes; from tissue; host or cells: human liver microsomes
Outline: as §1

[7] = molecular target: T4, CYP2C9 (Homo sapiens, UniProt P11712); assay: Direct inhibition (DI) of CYP2C9 in human liver microsomes; type: in vitro ADME; conditions: probe Diclofenac, human liver microsomes 0.2 mg/mL, 10 μM compound, read-out: Direct inhibition (DI) 2C9 (Diclofenac)
T4 construct: A system of 100 μL human liver microsomes; from tissue; host or cells: human liver microsomes
Outline: as §1

[8] = probe Midazolam, read-out: Direct inhibition (DI) 3A4 (Midazolam)
[9] = probe Testosterone, read-out: Direct inhibition (DI) 3A4 (testosterone)

T2 sequence (P08684 whole entry): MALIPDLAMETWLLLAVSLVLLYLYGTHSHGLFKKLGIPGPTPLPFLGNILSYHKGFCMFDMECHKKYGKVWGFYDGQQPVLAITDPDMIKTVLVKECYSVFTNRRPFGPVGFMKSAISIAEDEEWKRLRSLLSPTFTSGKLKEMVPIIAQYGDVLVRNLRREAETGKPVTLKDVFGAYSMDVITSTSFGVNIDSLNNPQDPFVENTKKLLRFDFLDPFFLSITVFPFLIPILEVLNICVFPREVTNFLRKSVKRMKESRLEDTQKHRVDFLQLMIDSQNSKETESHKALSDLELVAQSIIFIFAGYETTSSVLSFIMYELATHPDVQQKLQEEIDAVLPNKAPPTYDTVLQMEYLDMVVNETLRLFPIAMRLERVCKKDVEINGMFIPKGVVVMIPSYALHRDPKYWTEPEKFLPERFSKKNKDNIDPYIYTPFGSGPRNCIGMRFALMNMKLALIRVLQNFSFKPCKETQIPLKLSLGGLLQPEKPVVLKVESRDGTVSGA
Chain of EGFR kinase (P00533 25-1210): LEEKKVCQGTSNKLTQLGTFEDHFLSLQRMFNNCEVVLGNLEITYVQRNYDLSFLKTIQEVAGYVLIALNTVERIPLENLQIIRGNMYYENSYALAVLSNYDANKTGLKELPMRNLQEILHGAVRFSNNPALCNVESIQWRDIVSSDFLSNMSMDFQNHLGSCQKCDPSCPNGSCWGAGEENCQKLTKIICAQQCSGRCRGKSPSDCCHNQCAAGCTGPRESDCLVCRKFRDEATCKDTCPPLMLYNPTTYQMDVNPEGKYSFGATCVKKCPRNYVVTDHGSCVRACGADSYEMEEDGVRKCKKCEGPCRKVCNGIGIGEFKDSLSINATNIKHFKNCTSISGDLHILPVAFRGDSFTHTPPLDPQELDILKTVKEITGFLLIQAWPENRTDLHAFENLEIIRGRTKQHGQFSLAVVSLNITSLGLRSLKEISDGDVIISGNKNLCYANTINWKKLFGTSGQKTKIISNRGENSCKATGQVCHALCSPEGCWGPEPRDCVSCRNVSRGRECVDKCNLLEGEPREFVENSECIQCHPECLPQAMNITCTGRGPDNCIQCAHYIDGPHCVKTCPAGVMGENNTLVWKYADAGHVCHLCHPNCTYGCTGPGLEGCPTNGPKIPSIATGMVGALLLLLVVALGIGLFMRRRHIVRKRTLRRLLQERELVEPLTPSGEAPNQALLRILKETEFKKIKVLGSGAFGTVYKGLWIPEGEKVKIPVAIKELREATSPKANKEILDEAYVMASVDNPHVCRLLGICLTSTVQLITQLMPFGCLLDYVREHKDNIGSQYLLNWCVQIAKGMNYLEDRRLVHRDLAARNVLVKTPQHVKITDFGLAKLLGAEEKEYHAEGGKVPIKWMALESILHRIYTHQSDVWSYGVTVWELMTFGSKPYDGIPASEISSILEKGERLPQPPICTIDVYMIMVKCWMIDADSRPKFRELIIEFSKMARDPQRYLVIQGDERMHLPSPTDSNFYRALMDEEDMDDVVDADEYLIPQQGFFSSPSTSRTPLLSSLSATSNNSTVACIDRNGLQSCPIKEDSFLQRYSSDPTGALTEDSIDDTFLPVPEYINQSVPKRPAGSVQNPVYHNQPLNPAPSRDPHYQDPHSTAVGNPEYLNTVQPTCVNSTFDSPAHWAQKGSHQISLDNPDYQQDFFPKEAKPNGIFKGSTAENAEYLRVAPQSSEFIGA
T3 sequence (P10635 whole entry): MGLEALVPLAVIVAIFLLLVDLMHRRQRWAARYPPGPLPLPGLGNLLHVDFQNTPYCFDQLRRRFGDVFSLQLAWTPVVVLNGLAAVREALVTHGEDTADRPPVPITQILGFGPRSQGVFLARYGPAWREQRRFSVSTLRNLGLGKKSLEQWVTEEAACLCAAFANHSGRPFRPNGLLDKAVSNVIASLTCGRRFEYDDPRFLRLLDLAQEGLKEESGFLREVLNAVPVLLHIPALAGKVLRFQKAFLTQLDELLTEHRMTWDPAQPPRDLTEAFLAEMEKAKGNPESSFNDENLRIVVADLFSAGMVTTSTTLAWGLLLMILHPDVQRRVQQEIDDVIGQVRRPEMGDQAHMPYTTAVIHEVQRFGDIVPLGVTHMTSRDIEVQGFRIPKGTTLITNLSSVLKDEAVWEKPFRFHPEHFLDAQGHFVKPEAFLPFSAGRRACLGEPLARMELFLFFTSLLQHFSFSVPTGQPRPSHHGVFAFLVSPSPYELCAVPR
T4 sequence (P11712 whole entry): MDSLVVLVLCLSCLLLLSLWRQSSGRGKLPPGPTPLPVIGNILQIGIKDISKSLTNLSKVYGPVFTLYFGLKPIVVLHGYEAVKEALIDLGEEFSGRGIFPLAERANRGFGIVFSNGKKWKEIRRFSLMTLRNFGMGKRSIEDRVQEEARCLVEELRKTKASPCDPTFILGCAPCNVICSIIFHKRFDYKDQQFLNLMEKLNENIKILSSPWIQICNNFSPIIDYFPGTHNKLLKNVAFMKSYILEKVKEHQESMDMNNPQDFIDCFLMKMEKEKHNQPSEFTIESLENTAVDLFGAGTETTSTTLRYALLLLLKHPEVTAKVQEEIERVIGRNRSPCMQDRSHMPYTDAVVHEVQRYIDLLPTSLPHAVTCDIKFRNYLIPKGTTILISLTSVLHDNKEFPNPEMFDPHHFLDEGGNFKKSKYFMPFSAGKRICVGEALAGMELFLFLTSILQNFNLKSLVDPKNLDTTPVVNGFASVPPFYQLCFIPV
T1 sequence (P04626 23-1255): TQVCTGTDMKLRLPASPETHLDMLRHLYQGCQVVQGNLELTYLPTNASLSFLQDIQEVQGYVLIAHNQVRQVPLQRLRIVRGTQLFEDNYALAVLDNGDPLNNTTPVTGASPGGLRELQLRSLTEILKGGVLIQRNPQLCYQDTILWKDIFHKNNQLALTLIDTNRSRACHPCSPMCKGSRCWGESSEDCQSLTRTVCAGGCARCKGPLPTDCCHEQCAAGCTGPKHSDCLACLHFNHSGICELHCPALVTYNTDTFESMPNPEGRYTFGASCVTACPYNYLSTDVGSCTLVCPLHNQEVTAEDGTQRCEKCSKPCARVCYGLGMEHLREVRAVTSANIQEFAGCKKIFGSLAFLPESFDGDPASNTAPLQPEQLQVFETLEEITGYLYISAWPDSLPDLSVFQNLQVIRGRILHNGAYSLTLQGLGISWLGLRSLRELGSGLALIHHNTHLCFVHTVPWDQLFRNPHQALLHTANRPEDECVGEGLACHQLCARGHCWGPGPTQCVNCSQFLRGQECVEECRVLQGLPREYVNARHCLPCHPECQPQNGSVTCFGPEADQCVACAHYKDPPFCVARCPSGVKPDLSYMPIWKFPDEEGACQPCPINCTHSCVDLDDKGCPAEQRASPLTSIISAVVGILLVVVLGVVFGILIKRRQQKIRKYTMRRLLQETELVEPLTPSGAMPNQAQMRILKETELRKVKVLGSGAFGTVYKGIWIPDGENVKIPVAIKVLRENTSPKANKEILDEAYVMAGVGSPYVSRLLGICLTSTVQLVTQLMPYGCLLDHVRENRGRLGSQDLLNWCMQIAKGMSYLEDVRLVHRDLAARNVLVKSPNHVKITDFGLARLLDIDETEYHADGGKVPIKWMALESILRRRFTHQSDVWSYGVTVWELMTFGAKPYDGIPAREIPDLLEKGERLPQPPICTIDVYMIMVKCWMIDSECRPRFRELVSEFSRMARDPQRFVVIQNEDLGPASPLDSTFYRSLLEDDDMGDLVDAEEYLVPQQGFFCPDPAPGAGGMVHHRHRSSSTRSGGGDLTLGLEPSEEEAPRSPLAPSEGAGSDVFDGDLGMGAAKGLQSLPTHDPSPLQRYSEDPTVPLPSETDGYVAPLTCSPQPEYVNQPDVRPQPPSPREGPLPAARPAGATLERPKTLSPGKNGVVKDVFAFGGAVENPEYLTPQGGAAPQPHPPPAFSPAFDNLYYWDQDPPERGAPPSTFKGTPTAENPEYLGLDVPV

SMILES	IC50 [1] [nM]	IC50 [2] [nM]	IC50 [3] [nM]	IC50 [4] [nM]	inhibition at 20 min, 10 µM [5, 8] [%]	inhibition at 20 min, 10 µM [5, 9] [%]	inhibition at 20 min, 10 µM [6] [%]	inhibition at 20 min, 10 µM [7] [%]
CCOc1cc2ncnc(Nc3ccc(Oc4ccn5ncnc5c4)c(C)c3)c2cc1NC(=O)/C=C/[C@H]1CCCN1C [Final product of Embodiment 22, (R,E)-N-(4-((4-([1,2,4]triazolo[1,5-a]pyridin-7-yloxy)-3-methylphenyl)amino)-7-ethoxyquinazolin-6-yl)-3-(1-methylpyrrolidin-2-yl)acrylamide]	0.37	0.8	0.68	1	12	32	48	10
CCOc1cc2ncnc(Nc3ccc(Oc4ccn5ncnc5c4)c(C)c3)c2cc1NC(=O)/C(F)=C/[C@H]1CCCN1C [Final product of Embodiment 45]	1.8	10.5	1.3	2.1	6	24	39	< 0
